Consider two compounds from US20060183773A1, “Uses of methylphenidate derivatives” (priority 2005, published 2006).

What all share (type): cell-based, human
In one assay the test system is JNK3. Nature of the assay: Custom AntibodyArray, TRiPS cells: JNK3. The note with it: 15 μg/ml, 30 minutes. As to the method:
(§1) Day 18 TRiPS cells, 1×10^6, were incubated for 30 minutes at 37° C., either with nothing added (“Nil”), with 1 μl CD3/CD28 Dynabeads (Dynal, Oslo, Norway) (“CD3/CD28 beads”) per 100,000 cells, or with CD3/CD28 beads and 15 μg/ml of the compound of formula II (Cpd II). After the incubation, the cells were lysed in Cell-Lytic Mammalian Cell Extraction Reagent (Sigma). After centrifugation to pellet cellular debris, the supernatants (cell extracts) were obtained.
(§2) The cell extracts (supernatants) were then analyzed using a Custom AntibodyArray™ manufactured by Hypromatrix Inc., Worcester, Mass., following the manufacturer's instructions. The Custom AntibodyArray™ is a nylon membrane blotted with antibodies to the proteins listed below. Briefly, the cell extracts were incubated with duplicate Custom AntibodyArray™'s for 2 hours at room temperature with slow shaking, followed by three washes with Tris buffer (150 mM NaCl, 25 mM Tris, 0.05% Tween-20, pH 7.5). HRP-labeled antibodies specific for phosphorylated-tyrosine, phosphorylated-serine and phosphorylated-threonine in Tris buffer were added, and the arrays incubated for 2 hours. After three more washes with Tris buffer, a peroxidase-reactive luminescent substrate was added. The arrays were visualized by exposure to X-ray film. Densitometry of the X-ray films was measured by scanning and computer analysis.

The subject of the next assay is NFκB. Nature of the assay: Activated NFκB in VEGF-treated HUVECs, TransAM assay. The note with it: for Mean OD 450 nm (NFκB): control 0.070, VEGF only 0.111. The method, then: Passage 5 HUVECs, human source lot number 8750 (obtained from ATCC), were grown to confluence in 25 cm^2 flasks in EGM-2 medium. The following additives were added to the flasks (total volume of 5 ml/flask) in EGM-2 medium containing 2% FCS, GA1000 (gentamycin), heparin and ascorbic acid (all from Cambrex): 1 μg/ml of the compound of formula II (Cpd II); 5 μg/ml Cpd II; 15 μg/ml of Cpd II; 15 μg/ml methylphenidate (MP); or 10 μM LY 294002. The flasks were incubated overnight at 37° C., 5% CO2 After this incubation, vascular endothelial growth factor (VEGF) (obtained from Sigma) was added to give a final concentration 10 ng/ml, and the flasks were incubated for an additional 30 minutes.
Then, the amount of NFκB was determined using a TransAM™ NFκB p65/NFκB p50 Transcription Factor Assay Kit and a Nuclear Extract Kit from Active Motif North America, Carlsbad, Calif., according to the manufacturer's instructions. Briefly, a nuclear extract of the cells was prepared using the Nuclear Extract Kit. Then, the nuclear extract was added to the wells of the 96-well plate of the TransAM™ kit. Oligonucleotide containing an NFκB consensus binding site was immobilized in the wells, and the activated NFκB contained in the nuclear extract was bound to the oligonucleotide. Then, an antibody directed against the NFκB p65 or p50 subunit was added, and the NFκB complex bound to the oligonucleotide was detected. A secondary antibody conjugated to horseradish peroxidase (HRP) was next added to provide a colorimetric readout that was quantified by spectrophotometry (measurement at 450 nm).

A further assay has as its system IL-13. The assay is described as follows: IL-13 release by PBL, ELISA. The note with it: Dex 10 μM; for IL-13 release induced by PHA: donor GR467, 2 μg/ml PHA, 96 h, Cpd II 15 μg/ml, MP 15 μg/ml, FIG. 3. As to the method: After this incubation, PHA was added to give a final concentration of 2 μg/ml, and the cells were incubated for an additional 96 hours at 37° C., 5% CO2. All cultures were performed in triplicate. Cells were then removed by centrifugation at 1000 rpm for 10 minutes, and the culture medium collected.
Release of IL-13 and interferon gamma (IFNγ) into the culture medium was measured by ELISA. To perform the ELISA, matched pairs of antibodies against human IL-13 and IFNγ were purchased from Pierce Biotechnology and Biosource, respectively. ELISA strip well plates were coated with 10 μg/ml of antibody (in phosphate-buffered saline (PBS)) to IL-13 and 4 μg/ml of antibody to IFNγ (in PBS) overnight at room temperature. The plates were then blocked using a 4% BSA solution in PBS for one hour, followed by the addition of 50 μl of experimental culture medium per well in duplicate. The plates were incubated at room temperature for one hour and then washed using 50 mM Tris pH 8.0 with 0.1% Tween 20. Then, solutions of 400 ng/ml biotinylated second antibody to IL-13 and 500 ng/ml biotinylated second antibody to IFNγ were made in blocking buffer, and 100 μl were added per well. The plates were incubated for 1 hour and washed again. A 1:8000 dilution of Strepavidin HRP (Pierce Biotechnology) conjugate was made in blocking buffer, and 100 μl were added to the wells and incubation continued for 30 minutes. A final wash step was performed, after which 100 μl Pierce Biotechnology TMB substrate were added to each well. Color was developed for 30 minutes and stopped by adding 100 μl 0.18 N H2SO4. OD was determined using microplate reader with a 450 nm filter.
(§3) After this incubation, PHA was added to give a final concentration of 5 μg/ml, and the cells were incubated for an additional 72 hours at 37° C., 5% CO2. All cultures were performed in triplicate. Cells were then removed by centrifugation at 1000 rpm for 10 minutes.
The supernatants were collected, and the concentrations of IL-13 and tumor necrosis factor alpha (TNFα) in the supernatants were measured by ELISA. […]
In general terms: An ELISA detects its analyte on a solid surface through an enzyme-linked reagent.

In a further assay the test system is T cells. Nature of the assay: CD69+TCR staining of PBL, flow cytometry (T-cell activation). The note with it: for CD69+TCR staining of PHA-stimulated cells: PHA alone 84%. The method, then: as §3
The cells were further analyzed by flow cytometry. Annexin was used to determine populations of dead or dying cells. Anti-CD69 antibody was used to establish the level of cellular activation. Antibody to T-cell receptor αβ (TCR) was also used. Recombinant Annexin 5 (PE and FITC conjugates) and the antibodies were all purchase from Caltag (Burlingham, Calif.) and used following the manufacturer's recommendations.

A further assay relates to IL-7y. The assay is described as follows: Custom AntibodyArray, TRiPS cells: IL-7y. The note with it: 15 μg/ml, 30 minutes. The method, then:
as §1, §2

The test system of a further assay is 14-3-3. Nature of the assay: Custom AntibodyArray, TRiPS cells: 14-3-3. The note with it: 15 μg/ml, 30 minutes. As to the method: as §1, §2

Regarding `COC(=O)C(c1ccc(-c2ccccc2)cc1)C1CCCCN1` (centres unmarked) [Cpd II], the “Effect of Cpd II on the protein in CD3/CD28 stimulated TRiPS cells” value with JNK3 was “Decreased level back to basal levels (Nil control)”; in the assay on IL-7y, “Decreased level back to basal levels (Nil control)”; in the assay on 14-3-3 it was “Slightly decreased the level”. In addition, the results for the “Mean OD 450 nm (NFκB)” value in the assay on NFκB (VEGF 10 ng/ml + 1 μg/ml), with NFκB (VEGF 10 ng/ml + 5 μg/ml) and with NFκB (VEGF 10 ng/ml + 15 μg/ml) were 0.097 ± 0.013, 0.065 ± 0.010 and 0.060 ± 0.008, respectively. Further, the “amount of activated NFκB (in words)” value with NFκB (VEGF, 15 μg/ml and 5 μg/ml) was “reduced the amount of activated NFκB back to basal levels”. Also, the “release of IL-13 from PHA-stimulated PBL” value with IL-13 (donor GR191, 5 μg/ml PHA, 72 h, Cpd II 15 and 50 μg/ml, FIG. 6) was “significantly inhibited the release of IL-13”. Also, the “IL-13 release induced by PHA” value in the assay on IL-13 was “significantly inhibited IL-13 release induced by PHA”. Moreover, the “CD69+TCR staining of PHA-stimulated cells” value in the assay with T cells (PHA 5 μg/ml plus 15 μg/ml) was 64%; in the assay with T cells (PHA 5 μg/ml plus 50 μg/ml), 54%. In addition, in the assay on T cells (compound alone, no PHA), the “CD69+TCR staining (activated T cells)” value is “not detected”.
In the case of `COC(=O)C(c1ccccc1)C1CCCCN1` (centres unmarked) [methylphenidate], the “Mean OD 450 nm (NFκB)” value in the assay on NFκB (VEGF 10 ng/ml + 15 μg/ml) came out at 0.093 ± 0.011. Besides, in the assay on IL-13, the “IL-13 release induced by PHA” value is on record as “increased the release of IL-13 by the PHA-stimulated cells”.
